US20210317143A9, “BORONIC ESTER PRODRUGS AND USES THEREOF” (Massachusetts Institute of Technology, priority 2019, published 2021)

How the values were obtained:
healthy BALB/c mice = assay: In vivo toxicity / maximum tolerated dose in healthy BALB/c mice; conditions: twice a week
Method: (§1) Mice were euthanized if their body weight reached a 20% loss.
(§2) Toxicological studies were carried out including in vitro cell viability experiments and in vivo survivability studies (FIGS. 8A to 8B and FIG. 9A, respectively). The in vitro cell viability studies were carried out in both MM S model (for experimental details see Manier, S, et al., Science Translational Medicine 2017, 9, 389) and KMS11 flank cancer model. […] For the maximum tolerated dose (MTD) studies, animals (n=3-5) were dosed 4 times, with the exception that the 20 mg/kg group was dosed three times.

[1] = as above; conditions: BALB/c, mouse, in vivo, subcutaneous
Method: as §1, §2

MM.1SLuc+/GFP+ cells = conditions: 0.75 mg/kg (free Btz MTD; Btz-BBP dose-match)
Method: The tumors were induced via intravenous injection of MM.1SLuc+/GFP+ cells, and tumor progression was quantified by bioluminescence via the luciferase signal expressed by the MM.1S cells (FIGS. 12A to 12F). […] Mice (n=5) were treated for 30 days with the same treatment groups and dosing schedule described in the previous tumor model.
The orthotopic model of MM was obtained by injecting intravenously 1.5 million MM.1SLuc+/GFP+ cells in the tail vain of SCID/beige mice. Tumor dissemination was assessed by IVIS imaging (IVIS Spectrum. Perkin Elmer, bioluminescence imaging, BLI) once a week. […] Drug was injected twice a week for a period of 2 weeks (4 injections in total). Tumor burden response was obtained by IVIS imaging performed once a week. After 25 days, treatment was stopped. Endpoint criteria of the study was hind limb paralysis or loss of >20% of their initial body weight.

KMS11 cells = assay: In vitro cell viability assay (Celltiter glo) in KMS11; format: cell-based; conditions: Homo sapiens, KMS-11; KMS11, effect on cell proliferation after 48 h of incubation
Method: (§3) The effect on cell proliferation after 48 h of incubation with each agent was compared.
(§4) Both cell lines were cultured in RPMI media (ThermoFisher Scientific) supplemented with 10% FBS (VWR), 1% Penicillin/Streptomycin (ThermoFisher Scientific), and 1% glutamine (ThermoFisher Scientific). MM.1SLuc+/GFP+ cells were generated by retroviral transduction and authenticated by short tandem repeat DNA profiling. All cell lines were confirmed to be mycoplasma negative using the kit MycoAlert Mycoplasma (Lonza). Cell lines were housed in 5% CO2 and 37° C., incubators.
(§5) Cells were plated at 10,000 cells/well in a 96 well plate overnight and then treated for 48 hours with either bortezomib (Btz) or Btz-bottlebrush (BBP) at various concentrations. Cell viability assay was performed using the Celltiter glo reagent kit (Promega).
as §2

KMS11 subcutaneous tumor = assay: Efficacy study in subcutaneous model of MM (KMS11); format: in vivo, mice; conditions: 0.75 mg/kg twice a week (Btz at MTD; Btz-BBP dose-match, intravenous)
Method: Treatments were administered over a period of 50 days, after which tumor were left to freely progress.
The subcutaneous model of MM was generated with an injection of 3 million KMS11 cells in the hind flank of NCR nude mice. […] Tumor growth was monitor by caliper measurements (tumor measurement. TM). Once the tumor reached 1 cm in diameter, mice were randomly attributed to a treatment group. […] Drug was injected twice a week for a period of 4 weeks (8 injections in total) after mice were enrolled in the study. Mice body weight were tracked till day 50 (body weight measurement, BWM). Animals were sacrificed once the tumor reached 2 cm in the longest axis.

MM.1S cells = assay: In vitro cell viability assay (Celltiter glo) in MM.1S; format: cell-based; conditions: Homo sapiens, MM1.S, effect on cell proliferation after 48 h of incubation
Method: as §3, §4, §5, §2

Question: Which results are given for `CC(C)C[C@H](NC(=O)[C@H](Cc1ccccc1)NC(=O)c1cnccn1)B(O)O` [Btz, bortezomib]?
Answer: survival rates at higher doses (healthy BALB/c mice; free Btz above 0.75 mg/kg (1, 1.25 mg/kg)): rapid decrease of the survival rates; well-tolerated / safe dose (healthy BALB/c mice; healthy BALB/c mice): 0.75 mg/kg; MTD at 4 weeks [1]: 0.75 mg/kg; therapeutic improvement (MM.1SLuc+/GFP+ cells): diminished improvements; IC50 (KMS11 cells): 29.9 ± 1.6 nM; mean survival time (KMS11 subcutaneous tumor): 42 ± 6 days; IC50 (MM.1S cells): 3.5 ± 1.4 nM
